Assay results as given in patent US12629355B2, “Drug inhibitor against migration and invasion of cancer cells and methods of treating against metastasis of cancer cells” (HOWARD UNIVERSITY, priority 2019, dated 2026).

Legend:
Assay type in all cases: cell-based
U251 cells = test: Filipodia/lamellipodia development of TGF-induced cells on Matrigel, Giemsa stain (FIG. 2, FIG. 4)
Procedure: After incubation, media and matrigels were carefully removed and adherent cells were washed three times with 1×PBS; to visualize cells, cells were incubated with Giemsa Stain (Sigma-Aldrich) (1:20 with water) for 10 minutes, washed in water until no blue color rinsed out from the well images under a Zeiss Compound microscope.
It is shown in the FIG. 2 and FIG. 3 that 100 uM of SD 29-14 is effective in inhibiting the migration potential of the two different representative cancer cell lines, which establishes this drug as a candidate anti-metastasis drug for treating against cancers where a role of RACK1 upregulation is or has been shown in the metastasis process. There are many reviews on the RACK1 protein the cancer cell migration (e.g., Li and Xie, 2015; Duff and Long, 2017, among others).
Efficacy for inhibiting migration at a lower concentration of a representative compound was also investigated. Cancer cell lines were treated under conditions as used above for FIG. 2 and FIG. 3 but with both 10 μM and 100 μM SD29-14.

[1] = tested on: RACK1 / LamB1 co-localization; test: Co-localization of RACK1 with ECM protein LamB1, immunofluorescence (FIG. 11); conditions: U251 cells, TGFbeta1, 72 h
Excerpt: For effective migration, cell adhesion to the ECM is necessary and cell surface localized integrin molecules (alpha and beta) act as a link between the ECM and cell interior by acting as a receptor of the ECM proteins and linking ECM to the intracellular cytoskeleton complex. It is known that RACK1 acts as an integrin binding protein (Hermanto et al., 2002) and interaction between RACK1 and β1 integrin has been reported to mediate cancer cell invasion as reported in prostate cancer invasion and metastasis (Trerotola et al., 2012). RACK1 can promote tumor cell migration by using its scaffolding ability to bridge together different signaling proteins that integrate signaling from receptors cytoskeleton reorganization pathways. Laminin being a major ECM protein can therefor interact with integrins for cell adhesion and in this regard is expected to modulate by the RACK1 proteins scaffolding ability as discussed above. […] Lack of colocalization indicate that the link between the ECM proteins and intracellular cytoskeleton complex are interrupted and as such inhibiting this complex mediated migration signaling pathways.
As to FIG. 11, and methods of Immunofluorescence and confocal microscopy, U251 cells were grown to about 80% confluency in 12 well plate on glass cover slips and the cells were co-treated with the TGFb and indicated compounds for 72 h. […]

[2] = target: T1, RACK1A Y248 phosphorylation (Arabidopsis thaliana, UniProt O24456); test: Stress hormone (ABA) induced RACK1A Y248 phosphorylation in Arabidopsis seedlings, western blot (FIG. 1); conditions: 10 uM ABA, 12 hours
T1 construct: from tissue; host or cells: one-week old Arabidopsis seedlings (whole-seedling lysate)
Excerpt: The results of lab experiment establish the compounds identified by in silico screen to prevent RACK1 Y248 phosphorylation can inhibit RACK1 Y248 phosphorylation and confirm their utility in their application in RACK1 mediated cellular pathways. Y248 phosphorylation has previously been identified as a key event needed for RACK1 mediated scaffolding activities by regulating protein-protein interactions in plants. The corresponding residue in human RAKI is also a key requirement for scaffolding activities needed at the receptor level during the invasion and migration of cancer cells. […] The knock-out plant did maintain both the RACK1B protein and the RACK1C protein, but the antibody was raised to detect the RACK1A Y248 phosphorylation only.
As to FIG. 1, since RACK1 is a regulator of plant stress hormone Abscisic acid (ABA) (Guo et al., 2009), one-week old Arabidopsis seedlings were treated with 10 uM of ABA in the presence/absence of the inhibitor compounds for 12 hours in a growth chamber (overnight) at 22 C mostly in the night dark. Lysates isolated in buffer (Cell Signaling, MA) supplemented with plant protease inhibitor (Sigma-Aldrich), Protein Tyrosine phosphatase inhibitors (Santa Cruz Biotechnology, TX), and N-Ethylamaleimide (Sigma-Aldrich) at 25 mM to inhibit de-sumoylation. […]

T1 sequence (O24456 whole entry): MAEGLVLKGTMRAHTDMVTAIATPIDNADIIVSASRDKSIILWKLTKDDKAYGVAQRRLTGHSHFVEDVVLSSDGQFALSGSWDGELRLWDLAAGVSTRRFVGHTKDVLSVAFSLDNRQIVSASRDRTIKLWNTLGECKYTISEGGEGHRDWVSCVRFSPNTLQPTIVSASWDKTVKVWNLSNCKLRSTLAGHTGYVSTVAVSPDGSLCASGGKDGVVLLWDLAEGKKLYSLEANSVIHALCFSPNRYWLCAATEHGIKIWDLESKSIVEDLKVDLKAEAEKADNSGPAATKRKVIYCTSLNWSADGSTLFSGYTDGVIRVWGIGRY

- RACK1A Y248 phosphorylation with stress hormone present [2]: prevents Y248 phosphorylation
SMILES: Nn1c(S)nnc1-c1cc(Cl)cc(Cl)c1 [SD 29-14]
- efficacy to inhibit filipodia and lamellipodia development (U251 cells; 10 μM, 72 h grown (FIG. 4)): maintained
- filipodia and lamellipodia development (U251 cells; 100 uM, TGF on Matrigel, 48 h treated then 20 h on Matrigel): inhibition of the filipodia and lamellipodia development
- co-localization of RACK1 and Lamb1 at the cell surface [1]: this interaction was absent
